According to US20060160883A1, “Regulation of immune system action in mammals through use of a multi-tiered model of immune system function” (priority 2005, published 2006):

Tested on: osteosarcoma (bone cancer) and chondrosarcoma (cartilage cancer)
Experiment: Treatment of one dog (Maggie, 12 year old Border Collie) with bone and cartilage cancer after leg amputation
Assay type: in vivo
Source text: The mammal involved is Maggie, a 12 year old, neutered female Border Collie. • 1) The IDO-producing diseases or conditions in this case are osteosarcoma (bone cancer) and chondrosarcoma (cartilage cancer). • 2) There are three parts to treatment in this model. There must be a choice or choices from Treatment Part A. There may be choice(s) from Treatment Part B and/or Part C. • A) The goal of Treatment Part A is to “turn off” IDO and/or its actions. The choice I used in this case was an antioxidant to compete with IDO for O2. • The antioxidant I used was ascorbic acid in the form of Ester-C, a licensed trademark of Zila Neutraceuticals, Inc. It is manufactured under U.S. Pat. Nos. 4,822,816 and 5,070,085. It was purchased at Sam's Club and the bottle contained 500 500 mg caplets with Rose Hips.
The doseage was bowel tolerance level which in this case was 3-4½ grams per day. • B) The goal of Treatment Part B is to build up the immune system. […] This is not, however, seen as a cure for either type of cancer she had. • Another choice was pain medication. • Yet another choice was antibiotics after the surgery to prevent infection while she healed. • My other treatment of choice was Vitamin D3. I purchased KAL brand D-400. (This stands for 400 IUs of Vitamin D3). I purchased them at several health food stores. There were 100 softgels per bottle and each softgel contained 400 IUs of D3 as well as 600 IUs of Vitamin A. They were manufactured by Nutraceutical Corp. for Makers of KAL, Inc. • Maggie's dosage most of the time was 6 softgels (2400 IUs) per day. For one week in November, she had no Vitamin D3, then after that, 10 (4000 IUs) per day for a short time, then 8 (3200 IUs) per day. • The total cost per month for Ester-C and D-400 was approximately $25.
Also, on July 12, she started taking Vitamin D3. (She started with 2 per day, and by July 14th, was taking 6 per day. She took 3 in the morning and 3 at night from then until October 30.) The hope was that the D3 could buy some time.
August 25, in addition to Vitamin D3, Maggie started taking Vitamin C (Ester-C caplets). That evening, she was given 3 caplets (one and one half grams).
The morning of August 26, she was given 4 caplets (2 grams). The goal was to find her bowel tolerance level.
Treatment resumed, this time with 9 softgels of Vitamin D3 per day and 9 caplets of Ester-C per day. That afternoon, […] developed a fever that lasted until afternoon of the next day.
A week later, she was taking 7 Ester-C and 10 D3 per day, but the D3 was dropped to 8 per day by November 21.

| Compound | overall effect of the treatment on the cancer (autopsy findings) (Ester-C plus Vitamin D3 after amputation, only microscopic cells and clusters in liver, bone tumor area being replaced) | alkaline phosphatase level (blood test) (November 3, Ester-C at bowel tolerance since August 25 in addition to Vitamin D3 (D3 stopped October 30), before treatment 3175) | alkaline phosphatase level (blood test) (November 5, Vet Emergency Hospital (different lab), Ester-C plus Vitamin D3 treatment) | lung and lower abdominal x-rays, sign of cancer (November 5, Ester-C plus Vitamin D3 treatment) | autopsy, cancer in lungs (after death December 18, Ester-C plus Vitamin D3 treatment) | alertness, behaviour (evening of August 26, one day after start of Ester-C (3 then 4 caplets) in addition to Vitamin D3) | alkaline phosphatase level (blood test) (August 15, Vitamin D3 6 softgels (2400 IUs) per day since July 12 after amputation, level before treatment 3175, normal range 5-131) | lung X-rays (August 15, on Vitamin D3 after amputation) | signs of Vitamin D3 overdose (blood test) (November 3, after 6 softgels (2400 IUs) per day July 14 to October 30) | calcium deposits in organs on x-ray (a symptom of D3 overdose) (November 5) |
| --- | --- | --- | --- | --- | --- | --- | --- | --- | --- | --- |
| O=C1O[C@H]([C@@H](O)CO)C(O)=C1O [Vitamin C, ascorbic acid] | seemed to be working on the cancer | 2230 | 1669 | no sign of cancer | no cancer in her lungs | alert and awake |  |  |  |  |
| C=C1CC[C@H](O)C/C1=C/C=C1\CCC[C@]2(C)[C@@H]([C@H](C)CCCC(C)C)CC[C@@H]12 [Vitamin D3] |  |  |  |  |  |  | 3113 | no lung cancer tumors | no signs of Vitamin D3 overdose | no calcium deposits in any organs |
